Experimental data: US20180177184A1, “ANTIMICROBIAL, INSECTICIDAL AND ACARICIDAL SYSTEM” (UNIVERSIDAD POLITECNICA DE VALENCIA, priority 2015, published 2018)

System: Listeria innocua
Assay: Bacterial viability of Listeria innocua, 2 h incubation in tryptone soy broth, CFU counting
Format: cell-based
Details: L. innocua, about 10^6 CFU/ml, 37° C., concentration of vanillin
Method: To that end, in vitro assays were carried out to determine the bacterial viability of Listeria innocua compared to mesoporous particles functionalized with vanillin as well as free vanillin. […] To that end, different suspensions of particles or free vanillin in culture broth (tryptone soy broth) were prepared, and the microbial inoculum was added thereto to obtain an initial population of about 10^6 CFU/ml. Said suspensions were incubated under orbital stirring (150 rpm) at 37° C. for 2 h. After said period, the serial dilutions were seeded in selective medium and incubated for 48 h, with subsequent counting of the colony forming units (CFUs) and calculation of the percentage of inhibition.

COc1cc(C=O)ccc1O [free vanillin, vanillin]
concentration producing complete inhibition of the microorganism: 4 mg/mL
